Numbers after ± are expanded uncertainties.
Assays:
[1] = Closed cell (Static) method; for Normal melting temperature: Crystal 1
[2] = Molar enthalpy of transition or fusion

Row | Structure (SMILES) | Normal melting temperature [1] | Molar enthalpy of transition or fusion ([2]; Crystal 1, Closed cell (Static) method) | vapor or sublimation pressure ([1]; 356.86 K, Liquid) | Molar enthalpy of transition or fusion ([2]; Crystal, DSC)
1 | CC(O)CNCC(C)O (stereo not given) [N-(2-hydroxypropyl)-2-hydroxy-1-propanamine] | 42.7 °C | 22.7 kJ/mol | – | –
2 | CN(CCO)CCO [N-methyldiethanolamine] | -23 °C | – | 0.2 kPa | –
3 | CC(C)NC(C)C [diisopropylamine] | – | – | – | 22.7 ± 0.72 kJ/mol
